Drawing on patent publication US20230031406A1, “COMPOUNDS AND COMPOSITIONS FOR TREATING CONDITIONS ASSOCIATED WITH NLRP ACTIVITY” (Novartis AG, priority 2018, published 2023), this text covers IC50 for 23 compounds.

For orientation: IC50 means the concentration that inhibits the measured activity by half.

This assay deals with PMA-differentiated THP-1 cells. Description: IL-1β production in PMA-differentiated THP-1 cells stimulated with gramicidin (hTHP-1 assay containing 2% fetal bovine serum; Procedures 1 and 2). The note with it: 2% fetal bovine serum. It counts as cell-based, human. The method, boiled down:
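Compound titrations in 0.37% final DMSO were added to THP-1 cells that had been plated after 16-18 h PMA treatment, 50,000 per well in 2% FBS. One hour later the cells received gramicidin (5 μM, 2 h) and were centrifuged. HTRF detected IL-1β in the collected supernatants.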

The mark [1] stands for this setting: Homo sapiens, THP-1, Table B1, class symbols, read-out: Average IC50 of compounds in hTHP-1 assay: hTHP-1 IC50.
[2] abbreviates: Homo sapiens, THP-1, Table B2, numeric bounds, read-out: hTHP-1 IC50.
The mark [3] stands for this setting: Homo sapiens, THP-1, Table B3, hTHP-1 assay, class symbols, read-out: IC50.
The mark [4] stands for this setting: Table B1, class symbols, read-out: Average IC50 of compounds in hTHP-1 assay: hTHP-1 IC50.
Setting [5] is: Table B2, class symbols, read-out: hTHP-1 IC50.
Setting [6] is: Homo sapiens, THP-1, Table B2, class symbols, read-out: hTHP-1 IC50.

Read-outs that look alike come from different tables or passages of the source.

Consider `CC(C)c1cnc(F)c(C(C)C)c1NC(=O)N=S(N)(=O)c1cnc(C(C)(C)O)s1` (centres unmarked) [Compound 115, N′-((2-fluoro-3,5-diisopropylpyridin-4-yl)carbamoyl)-2-(2-hydroxypropan-2-yl)thiazole-5-sulfonimidamide], for which, under setting [1], the IC50 was 1 to 5 µM. As for `CCC1CCc2c1nc1c(c2NC(=O)N=S(N)(=O)c2cnc(C(C)(C)O)s2)CCC1` (single isomer, unassigned) [Compound 662a, (S, S) or (S, R) or (R, S) or (R, R)-N′-((3-Ethyl-1,2,3,5,6,7-hexaliydrodicyclopenta [b,e]pyridin-8-yl)caibamoyl)-2-(2-hydroxypropan-2-yl)thiazole-5-sulfonimidamide], the IC50 (Table B2, numeric bounds, read-out: hTHP-1 IC50) is over 30 µM. For the compound `CC1(C)CCc2c1nc1c(c2NC(=O)N=S(N)(=O)c2sc(C(C)(O)CO)cc2F)CCC1` (single isomer, unassigned) [Compound 699a, (S, S) and (R, S) or (S, R) and (R, R)-5-(1,2-Dihydroxypropan-2-yl)-N′-((3,3-dimethyl-1,2,3,5,6,7-hexahydrodicyclopenta [b,e]pyridin-8-yl)carbamoyl)-3-fluorotliophene-2-sulfonimidamide], under setting [2], the half-inhibitory concentration (IC50) is over 30 µM. For `CCn1cc(F)c(S(N)(=O)=NC(=O)Nc2c(C)c(CC(F)(F)F)nc3c2CCC3)n1` (single isomer, unassigned) [Example 717, (R) or (S)-1-ethyl-4-fluoro-N′-((3-methyl-2-(2,2,2-trifluoroethyl)-6,7-dihydro-5H-cyclopenta[b]pyridin-4-yl)carbamoyl)-1H-pyrazole-3-sulfonimidamide], the 50% inhibitory concentration (IC50) under setting [3] lay within 1 to 5 µM. Consider `CC(C)(O)c1ncc(S(N)(=O)=NC(=O)Nc2c3c(nc4c2CCC4)CCCC3)s1` (single isomer, unassigned) [Compound 161b, (R) or (S)-N′-((2,3,5,6,7,8-hexahydro-1H-cyclopenta[b]quinolin-9-yl)carbamoyl)-2-(2-hydroxypropan-2-yl)thiazole-5-sulfonimidamide], for which the half-maximal inhibitory concentration (IC50) under setting [4] was in the range of 1 to 5 µM.

Consider `CCc1csc(S(N)(=O)=NC(=O)Nc2c3c(nc4c2CC[C@H]4C)CCC3)c1` (single isomer, unassigned) [Compound 721a, (S) or (R)-4-Ethyl-N′-(((R)-3-methyl-1,2,3,5,6,7-hexahydrodicyclopenta[b, e]pyridin-8-yl)carbamoylithiophene-2-sulfonimidamide], for which the concentration for half-maximal inhibition (IC50) under setting [5] lay within 5 to 30 µM. With `COCc1nc(C(C)(C)O)sc1S(N)(=O)=NC(=O)Nc1c2c(nc3c1CCC3)CCC2` (single isomer, unassigned) [Compound 689a, (S) or (R)-N′-((1,2,3,5,6,7-hexahydrodicyclopenta [b,e]pyridin-8-yl)carbamoyl)-2-(2-hydroxypropan-2-yl)-4-(methoxymethyl) thiazole-5-sulfonimidamide], under setting [2], the IC50 was over 30 µM. For `CC1CCc2c1nc1c(c2NC(=O)N=S(N)(=O)c2ccc(CN(C)C)cc2)CCC1` (single isomer, unassigned) [Compound 134ab, (S,R) or (S,S)-4-((di-methylamino)methyl)-N′-((3-methyl-1,2,3,5,6,7-hexa-hydrodicyclo-penta[b,e]pyridin-8-yl)carbamoyl)benzene-sulfonimidamide], the half-inhibitory concentration (IC50) (Table B1, numeric bounds, read-out: Average IC50 of compounds in hTHP-1 assay: hTHP-1 IC50) was over 30 µM. As for `CC1CCc2c1nc1c(c2NC(=O)N=S(N)(=O)c2sc(C(C)(C)O)cc2F)CCC1` (single isomer, unassigned) [Compound 103bb, (R,S) or (R,R)-3-fluoro-5-(2-hydroxypropan-2-yl)-N′-((3-methyl-1,2,3,5,6,7-hexahydrodicyclo-penta[b,e]pyridin-8-yl)carbamoyl)thiophene-2-sulfonimidamide], under setting [4], the IC50 lay within 0.2 to 1 µM. With `CC1(C)CCc2c1nc1c(c2NC(=O)N=S(N)(=O)c2cnc(C(O)CO)s2)CCC1` (centres unmarked) [Example 753, 2-(1,2-Dihydroxyethyl)-N′-((3,3-dimethyl-1,2,3,5,6,7-hexahydrodicyclopenta[b,e]pyridin-8-yl)carbamoyl) thiazole-5-sulfonimidamide], for the setting “Homo sapiens, THP-1, Table B4, class symbols, read-out: hTHP-1 IC50”, the IC50 lay in the range of 0.2 to 1 µM. For `CCc1c(C2CC2)nc2c(c1NC(=O)N=S(N)(=O)c1cc(C(C)(C)O)cs1)CCC2` (centres unmarked) [Compound 181, N′-((2-cyclopropyl-3-ethyl-6,7-dihydro-5H-cyclopenta[b]pyridin-4-yl)carbamoyl)-4-(2-hydroxypropan-2-yl)thiophene-2-sulfonimidamide], the IC50 under setting [1] fell in the range of 0.2 to 1 µM. Regarding `CC(C)(O)c1ccc(S(N)(=O)=NC(=O)Nc2c3c(nc4c2CCC4)CCC3)cn1` (single isomer, unassigned) [Compound 156a, (S) or (R)-N′-((1,2,3,5,6,7-hexahydrodicyclo-penta[b,e]pyridin-8-yl)carbamoyl)-6-(2-hydroxypropan-2-yl)pyridine-3-sulfonimidamide], the IC50 (Homo sapiens, THP-1, Table B1, numeric bounds, read-out: Average IC50 of compounds in hTHP-1 assay: hTHP-1 IC50) was over 30 µM.

With `CN[C@H]1COc2c(S(N)(=O)=NC(=O)Nc3c(C)c(C(F)(F)F)nc4c3CCC4)cnn2C1` (stereo partly drawn) [Example 580, (6R)-N′-((3-methyl-2-(trifluoromethyl)-6,7-dihydro-5H-cyclopenta[b]pyridin-4-yl)carbamoyl)-6-(methylamino)-6,7-dihydro-5H-pyrazolo[5,1-b][1,3]oxazine-3-sulfonimidamide], under setting [3], the IC50 is 1 to 5 µM. Take `CCn1nc(S(N)(=O)=NC(=O)Nc2c3c(nc4c2CC[C@H]4C)CCC3)cc1CO` (stereo partly drawn) [Example 590, 1-Ethyl-5-(hydroxymethyl)-N′-(((R)-3-methyl-1,2,3,5,6,7-hexahydrodicyclopenta[b,e]pyridin-8-yl)carbamoyl)-1H-pyrazole-3-sulfonimidamide]: the IC50 under setting [3] lay in the range of 1 to 5 µM. Regarding `Cc1c(C(C)(C)C)nc2c(c1NC(=O)N=S(N)(=O)c1cc(C(C)(C)O)cs1)CCC2` (single isomer, unassigned) [Compound 657b, (R) or (S)-N′-((2-(tert-butyl)-3-methyl-6,7-dihydro-5H-cyclopenta[b]pyridin-4-yl)carbamoyl)-4-(2-hydroxypropan-2-yl)thiophene-2-sulfonimidamide], under setting [6], the IC50 lay within 5 to 30 µM. Turning to `CC(C)c1cncc(C(C)C)c1NC(=O)N=S(N)(=O)c1cnc(C(C)(C)O)s1` (single isomer, unassigned) [Compound 160b, (S) or (R)-N′-((3,5-diisopropylpyridin-4-yl)carbamoyl)-2-(2-hydroxypropan-2-yl)thiazole-5-sulfonimidamide], under setting [1], the IC50 is 5 to 30 µM.

For `CC(C)(O)c1cncc(S(N)(=O)=NC(=O)Nc2c3c(nc4c2CCC4(C)C)CCC3)c1` (centres unmarked) [Compound 684, N′-((3,3-dimethyl-1,2,3,5,6,7-hexahydrodicyclopenta[b,e]pyridin-8-yl)carbamoyl)-5-(2-hydroxypropan-2-yl)pyridine-3-sulfonimidamide], the IC50 under setting [6] was 0.2 to 1 µM. `CC(C)(O)c1cc(S(N)(=O)=NC(=O)Nc2c3c(nc4c2CCC4(C)C)CCC3)nn1-c1ccccc1` (single isomer, unassigned) [Compound 663a, (S) or (R)-N′-((3,3-dimethyl-1,2,3,5,6,7-hexahydrodicyclopenta [b,e]pyridin-8-yl)carbamoyl)-5-(2-hydroxypropan-2-yl)-1-phenyl-1H-pyrazole-3-sulfonimidamide]: under setting [2], the IC50 is over 30 µM. As to `Cn1nc(S(N)(=O)=NC(=O)Nc2c3c(nc4c2CCC4)CCC3)cc1C(C)(C)O` (single isomer, unassigned) [Compound 158a, (R) or (S)-N′-((1,2,3,5,6,7-hexahydrodicyclo-penta[b,e]pyridin-8-yl)carbamoyl)-5-(2-hydroxypropan-2-yl)-1-methyl-1H-pyrazole-3-sulfonimidamide], under setting [1], the IC50 was in the range of 1 to 5 µM. With `CCc1c(C2CC2)nc2c(c1NC(=O)N=S(N)(=O)c1cnc(C(C)(C)O)s1)CCC2` (single isomer, unassigned) [Compound 675b, (S) or (R)-N′-((2-cyclopropyl-3-ethyl-6,7-dihydro-5H-cyclopenta[b]pyridin-4-yl)carbamoyl)-2-(2-hydroxypropan-2-yl)thiazole-5-sulfonimidamide], under setting [5], the 50% inhibitory concentration (IC50) is 5 to 30 µM. As for `CC(C)(O)c1csc(S(N)(=O)=NC(=O)Nc2cc(C(F)(F)F)nc3c2CCC3)c1` (single isomer, unassigned) [Example 668, (S) or (R)-4-(2-hydroxypropan-2-yl)-N′-((2-(trifluoromethyl)-6,7-dihydro-5H-cyclopenta[b]pyridin-4-yl)carbamoyl)thiophene-2-sulfonimidamide], the 50% inhibitory concentration (IC50) (Homo sapiens, THP-1, Table B3, hTHP-1 assay, numeric values, read-out: IC50) is over 30 µM. Take `C[C@@H]1CCc2c1nc1c(c2NC(=O)N=S(N)(=O)c2sc(CN(C)C)cc2F)CCC1` (single isomer, unassigned) [Compound 636a, (S) or (R)-5-((Dimethylamino)methyl)-3-fluoro-N′-(((R)-3-methyl-1,2,3,5,6,7-hexahydrodicyclopenta [b,e]pyridin-8-yl)carbamoyl) thiophene-2-sulfonimidamide]: the half-maximal inhibitory concentration (IC50) under setting [5] lay in the range of 5 to 30 µM.

On to `Cc1c(C(C)C)nc2c(c1NC(=O)N=S(N)(=O)c1sc(C(C)(C)O)cc1F)CCC2` (centres unmarked) [Compound 645, 3 -Fluoro-5-(2-hydroxypropan-2-yl)-N′-((2-isopropyl-3-methyl-6,7-dihydro-5H-cyclopenta[b]pyridin-4-yl)carbamoyl)thiophene-2-sulfonimidamide], for which the IC50 under setting [6] was in the range of 0.04 to 0.2 µM.
